Measurements as given in patent US10300071B2, “Compositions and methods for inhibition of mycobacteria” (priority 2014, dated 2019).
Values after ≈ are worked out from the molar mass of the structure shown. Read-outs that look alike come from different tables or passages of the source.

How the values were obtained:
[1] = system: Mtb strain mc^2-7000; assay: microbe, parasite or virus in culture; format: cell-based, Mycobacterium tuberculosis; settings: 6 days incubation at 37° C., resazurin, read on the 7th day
[2] = system: S. cerevisiae
[3] = system: human fibroblast
[4] = target: Mtb AccD6 (Mycobacterium tuberculosis, UniProt P9WQH5); assay: biochemical; format: biochemical; settings: for IC50: 300 μM malonyl-CoA, inhibitor 10 μM to 2000 μM
[5] = Mycobacterium tuberculosis, 144 h, read-out: MIC

Mtb AccD6, sequence (P9WQH5 whole entry, looked up): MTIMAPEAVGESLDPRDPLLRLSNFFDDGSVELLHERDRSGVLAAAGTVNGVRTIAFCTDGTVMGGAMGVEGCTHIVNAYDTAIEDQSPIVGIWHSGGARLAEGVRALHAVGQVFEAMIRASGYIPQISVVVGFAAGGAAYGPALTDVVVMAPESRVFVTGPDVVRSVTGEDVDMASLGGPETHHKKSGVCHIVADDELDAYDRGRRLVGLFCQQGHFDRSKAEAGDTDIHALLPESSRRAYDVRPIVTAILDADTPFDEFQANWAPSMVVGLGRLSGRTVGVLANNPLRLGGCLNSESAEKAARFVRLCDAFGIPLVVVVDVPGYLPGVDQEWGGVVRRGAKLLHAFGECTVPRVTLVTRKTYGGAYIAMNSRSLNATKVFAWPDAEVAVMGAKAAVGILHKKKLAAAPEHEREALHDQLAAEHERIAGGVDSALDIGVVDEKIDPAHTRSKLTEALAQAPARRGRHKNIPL

## CONC(=O)C(C)(C)Oc1ccc(Oc2nc3ccc(Cl)cc3s2)cc1 [NZ-319, 2-{4-[(6-chloro-1,3-benzothiazol-2-yl)oxy]phenoxy}-N-methoxy-2-methylpropanamide]
[1]; [5]
  MIC: 6 µM (≈ 2.36 µg/mL)
[2]
  concentrations at which not toxic, s. cerevisiae cytotoxicity: ≥ 100 µM
[3]
  concentrations at which not toxic, human fibroblast cytotoxicity: ≥ 100 µM
[4]; read-out: IC50
  IC50: 20000 nM

## COC(=O)C(C)(C)Oc1ccc(Oc2cnc3cc(Cl)ccc3n2)cc1 [NZ-314, methyl 2-{4-[(6-chloroquinoxalin-2-yl)oxy]phenoxy}-2-methylpropanoate]
[1]; [5]
  MIC: 6 µM (≈ 2.24 µg/mL)
[2]
  concentrations at which not toxic, s. cerevisiae cytotoxicity: ≥ 100 µM
[3]
  concentrations at which not toxic, human fibroblast cytotoxicity: ≥ 100 µM
[4]; read-out: IC50
  IC50: 17500 nM

## O=C(O)COc1ccc(Oc2nc3ccc(F)cc3s2)cc1 [NZ-304, 2-{4-[(6-fluoro-1,3-benzothiazol-2-yl)oxy]phenoxy}acetic acid]
[1]; [5]
  MIC: 25 µM (≈ 7.98 µg/mL)
[2]
  concentrations at which not toxic, s. cerevisiae cytotoxicity: ≥ 100 µM
[3]
  concentrations at which not toxic, human fibroblast cytotoxicity: ≥ 100 µM
[4]; read-out: IC50
  IC50: 3400 nM

## CNC(=O)Cc1ccc(Oc2nc3ccc(Cl)cc3s2)cc1O [NZ-389, 2-{4-[(6-chloro-1,3-benzothiazol-2-yl)oxy]-2-hydroxyphenyl}-N-methylacetamide]
[1]; [5]
  MIC: 1.2 to 2.2 µM (≈ 0.419 to 0.767 µg/mL)
[2]
  concentrations at which not toxic, s. cerevisiae cytotoxicity: ≥ 100 µM
[3]
  concentrations at which not toxic, human fibroblast cytotoxicity: ≥ 100 µM
[4]; read-out: IC50
  IC50: 210 nM

## O=C(O)Cc1ccc(Oc2cnc3cc(Cl)ccc3n2)cc1 [NZ-298, 2-{4-[(6-chloroquinoxalin-2-yl)oxy]phenyl}acetic acid]
[1]; [5]
  MIC: 25 µM (≈ 7.87 µg/mL)
[2]
  concentrations at which not toxic, s. cerevisiae cytotoxicity: ≥ 100 µM
[3]
  concentrations at which not toxic, human fibroblast cytotoxicity: ≥ 100 µM
[4]; read-out: IC50
  IC50: 280 nM

## CC(C)(Oc1ccc(Oc2cnc3cc(Cl)ccc3n2)cc1)C(=O)O [NZ-315, 2-{4-[(6-chloroquinoxalin-2-yl)oxy]phenoxy}-2-methylpropanoic acid]
[1]; [5]
  MIC: 25 µM (≈ 8.97 µg/mL)
[2]
  concentrations at which not toxic, s. cerevisiae cytotoxicity: ≥ 100 µM
[3]
  concentrations at which not toxic, human fibroblast cytotoxicity: ≥ 100 µM
[4]; read-out: IC50
  IC50: 1700 nM

## COc1ccc2nc(Oc3ccc(NC(=O)NC(C)C)cc3)sc2c1 [NZ-361, 1-{4-[(6-methoxy-1,3-benzothiazol-2-yl)oxy]phenyl}-3-(propan-2-yl)urea]
[1]; [5]
  MIC: 3.2 µM (≈ 1.14 µg/mL)
[2]
  concentrations at which not toxic, s. cerevisiae cytotoxicity: ≥ 100 µM
[3]
  concentrations at which not toxic, human fibroblast cytotoxicity: ≥ 100 µM
[4]; read-out: inhibition at 20 uM
  inhibition at 20 µM: 19%

## CC(C(=O)O)c1ccc(Oc2cnc3cc(Cl)ccc3n2)cc1 (stereo not shown) [NZ-309, 2-{4-[(6-chloroquinoxalin-2-yl)oxy]phenyl}propanoic acid]
[1]; [5]
  MIC: 12 µM (≈ 3.95 µg/mL)
[2]
  concentrations at which not toxic, s. cerevisiae cytotoxicity: ≥ 100 µM
[3]
  concentrations at which not toxic, human fibroblast cytotoxicity: ≥ 100 µM
[4]; read-out: IC50
  IC50: 172 nM

## COC(=O)Cn1ccc(Oc2nc3ccc(Cl)cc3s2)cc1=O [NZ-396, methyl 2-{4-[(6-chloro-1,3-benzothiazol-2-yl)oxy]-2-oxo-1,2-dihydropyridin-1-yl}acetate]
[1]; [5]
  MIC: 6.19 to 8.6 µM
[2]
  concentrations at which not toxic, s. cerevisiae cytotoxicity: ≥ 100 µM
[3]
  concentrations at which not toxic, human fibroblast cytotoxicity: ≥ 100 µM
[4]; read-out: IC50
  IC50: 11300 nM

## CNC(=O)Cc1ccc(Oc2nc3cc(F)c(F)cc3s2)cc1O [NZ-401, 2-{4-[(5,6-difluoro-1,3-benzothiazol-2-yl)oxy]-2-hydroxyphenyl}-N-methylacetamide]
[1]; [5]
  MIC: 0.54 µM (≈ 0.189 µg/mL)
[2]
  concentrations at which not toxic, s. cerevisiae cytotoxicity: ≥ 100 µM
[3]
  concentrations at which not toxic, human fibroblast cytotoxicity: ≥ 100 µM
[4]; read-out: IC50
  IC50: 120 nM

## CC(C)NC(=O)Nc1ccc(Oc2nc3c(F)cccc3s2)cc1 [NZ-374, 1-{4-[(4-fluoro-1,3-benzothiazol-2-yl)oxy]phenyl}-3-(propan-2-yl)urea]
[1]
  MIC: Not Active
[2]
  concentrations at which not toxic, s. cerevisiae cytotoxicity: ≥ 100 µM
[3]
  concentrations at which not toxic, human fibroblast cytotoxicity: ≥ 100 µM
[4]
  IC50: Not Active

## CC(C)NC(=O)Nc1ccc(Oc2nc3ccc(C(F)(F)F)cc3s2)cc1 [NZ-379, 3-(propan-2-yl)-1-(4-{[6-(trifluoromethyl)-1,3-benzothiazol-2-yl]oxy}phenyl)urea]
[1]
  MIC: Not Active
[2]
  concentrations at which not toxic, s. cerevisiae cytotoxicity: ≥ 100 µM
[3]
  concentrations at which not toxic, human fibroblast cytotoxicity: ≥ 100 µM
[4]
  IC50: Not Active

## CC(C)NC(=O)Nc1ccc(Oc2nc3ccc(C#N)cc3s2)cc1 [NZ-377, 1-{4-[(6-cyano-1,3-benzothiazol-2-yl)oxy]phenyl}-3-(propan-2-yl)urea]
[1]
  MIC: Not Active
[2]
  concentrations at which not toxic, s. cerevisiae cytotoxicity: ≥ 100 µM
[3]
  concentrations at which not toxic, human fibroblast cytotoxicity: ≥ 100 µM
[4]; read-out: IC50
  IC50: 7900 nM

## COC(=O)C(C)c1ccc(Oc2cnc3cc(Cl)ccc3n2)cc1 (stereo not shown) [NZ-308, methyl 2-{4-[(6-chloroquinoxalin-2-yl)oxy]phenyl}propanoate]
[1]; [5]
  MIC: 4.5 µM (≈ 1.54 µg/mL)
[2]
  concentrations at which not toxic, s. cerevisiae cytotoxicity: ≥ 100 µM
[3]
  concentrations at which not toxic, human fibroblast cytotoxicity: ≥ 100 µM
[4]; read-out: IC50
  IC50: 8000 nM

## CNC(=O)Cc1ccc(O)cc1Oc1nc2ccc(Cl)cc2s1 [NZ-390, 2-{2-[(6-chloro-1,3-benzothiazol-2-yl)oxy]-4-hydroxyphenyl}-N-methylacetamide]
[1]
  MIC: Not Active
[2]
  concentrations at which not toxic, s. cerevisiae cytotoxicity: ≥ 100 µM
[3]
  concentrations at which not toxic, human fibroblast cytotoxicity: ≥ 100 µM
[4]; read-out: IC50
  IC50: 15400 nM

## O=C(COc1ccc(Oc2cnc3cc(Cl)ccc3n2)cc1)NOCC1CC1 [NZ-323, 2-{4-[(6-chloroquinoxalin-2-yl)oxy]phenoxy}-N-(cyclopropylmethoxy)acetamide]
[1]; [5]
  MIC: 6 µM (≈ 2.4 µg/mL)
[2]
  concentrations at which not toxic, s. cerevisiae cytotoxicity: ≥ 100 µM
[3]
  concentrations at which not toxic, human fibroblast cytotoxicity: ≥ 100 µM
[4]; read-out: IC50
  IC50: 3600 nM

## CC(C)NC(=O)Nc1ccc(Oc2nc3ccc(CO)cc3s2)cc1 [NZ-381, 1-(4-{[6-(hydroxymethyl)-1,3-benzothiazol-2-yl]oxy}phenyl)-3-(propan-2-yl)urea]
[1]; [5]
  MIC: 7.3 µM (≈ 2.61 µg/mL)
[2]
  concentrations at which not toxic, s. cerevisiae cytotoxicity: ≥ 100 µM
[3]
  concentrations at which not toxic, human fibroblast cytotoxicity: ≥ 100 µM
[4]
  IC50: Not Active

## CNC(=O)C(C)c1ccc(Oc2nc3cc(Cl)c(Cl)cc3s2)cc1 (stereo not shown) [NZ-394, 2-{4-[(5,6-dichloro-1,3-benzothiazol-2-yl)oxy]phenyl}-N-methylpropanamide]
[1]
  MIC: Not active
[2]
  concentrations at which not toxic, s. cerevisiae cytotoxicity: ≥ 100 µM
[3]
  concentrations at which not toxic, human fibroblast cytotoxicity: ≥ 100 µM
[4]; read-out: IC50
  IC50: 980 nM

## CC(C)(C)OC(=O)Nc1ccc(Oc2cnc3cc(Cl)ccc3n2)cc1 [NZ-321, tert-butyl N-{4-[(6-chloroquinoxalin-2-yl)oxy]phenyl}carbamate]
[1]; [5]
  MIC: 50 µM (≈ 18.6 µg/mL)
[2]
  concentrations at which not toxic, s. cerevisiae cytotoxicity: ≥ 100 µM
[3]
  concentrations at which not toxic, human fibroblast cytotoxicity: ≥ 100 µM
[4]; read-out: IC50
  IC50: 20000 nM

## CNC(=O)C(C)c1ccc(Oc2nc3cc(F)c(F)cc3s2)cc1 (stereo not shown) [NZ-387, 2-{4-[(5,6-difluoro-1,3-benzothiazol-2-yl)oxy]phenyl}-N-methylpropanamide]
[1]; [5]
  MIC: 2.7 to 8 µM (≈ 0.941 to 2.79 µg/mL)
[2]
  concentrations at which not toxic, s. cerevisiae cytotoxicity: ≥ 100 µM
[3]
  concentrations at which not toxic, human fibroblast cytotoxicity: ≥ 100 µM
[4]; read-out: IC50
  IC50: 260 nM

## CC(C(=O)NCCO)c1ccc(Oc2nc3ccc(Cl)cc3s2)cc1 (stereo not shown) [NZ-370, 2-{4-[(6-chloro-1,3-benzothiazol-2-yl)oxy]phenyl}-N-(2-hydroxyethyl)propanamide]
[1]; [5]
  MIC: 1.8 µM (≈ 0.678 µg/mL)
[2]
  concentrations at which not toxic, s. cerevisiae cytotoxicity: ≥ 100 µM
[3]
  concentrations at which not toxic, human fibroblast cytotoxicity: ≥ 100 µM
[4]; read-out: IC50
  IC50: 1000 nM

## CONC(=O)C(C)c1ccc(Oc2nc3ccc(F)cc3s2)cc1 (racemic) [NZ-330, 2-{4-[(6-fluoro-1,3-benzothiazol-2-yl)oxy]phenyl}-N-methoxypropanamide]
[1]; [5]
  MIC: 1.5 µM (≈ 0.52 µg/mL)
[2]
  concentrations at which not toxic, s. cerevisiae cytotoxicity: ≥ 100 µM
[3]
  concentrations at which not toxic, human fibroblast cytotoxicity: ≥ 100 µM
[4]; read-out: IC50
  IC50: 240 nM

## CC(C(=O)N1CCOCC1)c1ccc(Oc2nc3ccc(Cl)cc3s2)cc1 (stereo not shown) [NZ-365, 2-{4-[(6-chloro-1,3-benzothiazol-2-yl)oxy]phenyl}-1-(morpholin-4-yl)propan-1-one]
[1]; [5]
  MIC: 18.9 µM (≈ 7.61 µg/mL)
[2]
  concentrations at which not toxic, s. cerevisiae cytotoxicity: 50 to 100 µM
[3]
  concentrations at which not toxic, human fibroblast cytotoxicity: ≥ 100 µM
[4]; read-out: IC50
  IC50: 6200 nM

## CC(C)(Oc1ccc(Oc2nc3ccc(Cl)cc3s2)cc1)C(=O)O [NZ-318, 2-{4-[(6-chloro-1,3-benzothiazol-2-yl)oxy]phenoxy}-2-methylpropanoic acid]
[1]; [5]
  MIC: 12 µM (≈ 4.37 µg/mL)
[2]
  concentrations at which not toxic, s. cerevisiae cytotoxicity: ≥ 100 µM
[3]
  concentrations at which not toxic, human fibroblast cytotoxicity: ≥ 100 µM
[4]; read-out: IC50
  IC50: 1500 nM

## CONC(=O)C(C)c1ccc(Oc2cnc3cc(Cl)ccc3n2)cc1 (stereo not shown) [NZ-310, 2-{4-[(6-chloroquinoxalin-2-yl)oxy]phenyl}-N-methoxypropanamide]
[1]; [5]
  MIC: 6 µM (≈ 2.15 µg/mL)
[2]
  concentrations at which not toxic, s. cerevisiae cytotoxicity: ≥ 100 µM
[3]
  concentrations at which not toxic, human fibroblast cytotoxicity: ≥ 100 µM
[4]; read-out: IC50
  IC50: 182 nM

## CNC(=O)Cc1ccc(Oc2cnc3cc(Cl)ccc3n2)cc1O [NZ-402, 2-{4-[(6-chloroquinoxalin-2-yl)oxy]-2-hydroxyphenyl}-N-methylacetamide]
[1]; [5]
  MIC: 2.16 µM (≈ 0.743 µg/mL)
[2]
  concentrations at which not toxic, s. cerevisiae cytotoxicity: ≥ 100 µM
[3]
  concentrations at which not toxic, human fibroblast cytotoxicity: ≥ 100 µM
[4]; read-out: IC50
  IC50: 210 nM

## CCNC(=O)COc1ccc(Oc2cnc3cc(Cl)ccc3n2)cc1 [NZ-306, 2-{4-[(6-chloroquinoxalin-2-yl)oxy]phenoxy}-N-ethylacetamide]
[1]; [5]
  MIC: 25 µM (≈ 8.94 µg/mL)
[2]
  concentrations at which not toxic, s. cerevisiae cytotoxicity: ≥ 100 µM
[3]
  concentrations at which not toxic, human fibroblast cytotoxicity: ≥ 100 µM
[4]; read-out: IC50
  IC50: 4600 nM

## COc1ccc2nc(Oc3ccc(C(C)C(=O)O)cc3)sc2c1 (stereo not shown) [NZ-334, 2-{4-[(6-methoxy-1,3-benzothiazol-2-yl)oxy]phenyl}propanoic acid]
[1]; [5]
  MIC: 25 µM (≈ 8.23 µg/mL)
[2]
  concentrations at which not toxic, s. cerevisiae cytotoxicity: ≥ 100 µM
[3]
  concentrations at which not toxic, human fibroblast cytotoxicity: ≥ 100 µM
[4]; read-out: IC50
  IC50: 10000 nM
